Test results published in US20240133884A1, “COMPOSITIONS AND METHODS FOR DETECTING TRYPANOSOMA CRUZI INFECTION” (University of Georgia Research Foundation, Inc., priority 2022, published 2024).
pIC50: −log10 of the molar value.

Legend:
[1] = in vivo
[2] = system: T. cruzi (Brazil strain); settings: cited from earlier work
[3] = system: T. cruzi intracellular amastigotes; experiment: In vitro anti-T. cruzi amastigote growth inhibition assay (tdTomato fluorescence, 72 hours, Vero cells); format: cell-based, Trypanosoma cruzi; settings: for in vitro activity against T. cruzi: in words
Procedure: (§1) The in vitro anti-T. cruzi amastiogote activity assay was performed and optimized based on the protocol described previously (Canavaci, et al., PLoS neglected tropical diseases 4, e740 (2010)). The change in tdTomato fluorescence intensity was determined as a measurement of growth over 72 hours of culture. For assaying drug effects on extracellular amastigotes, trypomastigotes were collected from infected Vero cell cultures and converted in acidic media as previously described (Tomlinson, et al., Parasitology 110 (Pt 5), 547-554 (1995)). Amastigotes (50,000/well) were incubated with 2-fold serial dilutions of compounds for 48 hours. The ATP production was used as an indication of growth in this case, and was measured by ATPlite Luminescence ATP Detection Assay System (PerkinElmer). Both fluorescence and luminescence were read using a BioTek Synergy Hybrid Multi-Mode reader equipped with the software Gene5 v 2.0 (BioTek). The dose-response curve was generated by […] analysis with GraphPad Prism v9.4.0 (GraphPad Software). IC50 was determined as the drug concentration that was required to inhibit 50% of growth compared to that of parasites with no drug exposure.

[4] = system: mammalian enzymes, receptors and ion channels; experiment: Safety pharmacology: affinity for a broad array of mammalian enzymes, receptors and ion channels; format: binding
[5] = Standard Ames study; format: cell-based
[6] = system: cytochrome P450 enzymes; experiment: Inhibition of representative cytochrome P450 enzymes; format: in vitro ADME; settings: 10 uM
[7] = High dose 7-day toxicology studies in rats; format: in vivo; settings: high dose 7-day toxicology studies, oral
[8] = system: CPSF3; settings: T. b. brucei; cited from earlier work
[9] = system: T. cruzi (Colombiana strain); experiment: BNZ prophylaxis in mice (bioluminescence imaging, T-cell phenotyping, tissue qPCR); format: in vivo, Trypanosoma cruzi; settings: for luciferase signal: 100 mg/kg twice weekly
Procedure: For the studies in mice, female mice, 8-12 weeks old were used for infections throughout the study. Sample sizes were determined based upon knowledge of heterogeneity in parasite burden during T. cruzi infection and published reports using similar experimental strategies. Data collected were included if productive T. cruzi infection was established (visualized by luciferase imaging or flow cytometry by detection of T. cruzi-tetramer specific CD8^+ T cells). The investigators were not blinded during the collection or analysis of data and mice were randomly assigned to treatment groups prior to the start of each experiment.
C57BL/6J (Stock No:000664) mice (C57BL/6 wild-type) were purchased from The Jackson Laboratory (Bar Harbor, ME) and C57BL/6J-IFN-gamma knockout mice (also known as B6.129S7-Ifngtm1 Ts/J; The Jackson Laboratory stock No 002287) were bred in-house at the University of Georgia Animal Facility. All the animals were maintained in the University of Georgia Animal Facility under specific pathogen-free conditions. T. cruzi tissue culture trypomastigotes of the Colombiana strain co-expressing firefly luciferase and tdTomato reporter proteins, generated as described previously (Sanchez-Valdez, et al., eLife 7 (2018), Bustamante, et al., Sci Transl Med. 12(567) 2020)), were maintained through passage in Vero cells (American Type Culture Collection (Manassas, VA)) cultured in RPMI 1640 medium with 10% fetal bovine serum at 37° C. in an atmosphere of 5% CO2. Mice were infected intraperitoneally with 10^3 tissue culture trypomastigotes of T. cruzi. This study was carried out in strict accordance with the Public Health Service Policy on Humane Care and Use of Laboratory Animals and Association for Assessment and Accreditation of Laboratory Animal Care accreditation guidelines. The protocol was approved by the University of Georgia Institutional Animal Care and Use Committee.
Mice were treated with benznidazole twice weekly at a 100 mg/kg/day and infected midway during the 3rd week of treatment (FIG. 8A). Benznidazole (BNZ—Elea Phoenix, Buenos Aires, Argentina) was prepared by pulverization of tablets followed by suspension in an aqueous solution of 1% sodium carboxymethylcellulose with 0.1% Tween 80 and delivered orally by gavage at a concentration dosage of 100 mg/kg of body weight. Each mouse received 0.2 ml of this suspension. Luciferase-expressing parasites were quantified in mice by bioluminescent detection. Mice were injected intraperitoneally with D-luciferin (150 mg/kg; PerkinElmer, Waltham, MA) and anesthetized using 2.5% (vol/vol) gaseous isofluorane in oxygen prior to imaging on an IVIS Lumina II imager (Xenogen, Alameda, CA) for an exposure time of 5 minutes, as previously described (Canavaci, et al., PLoS neglected tropical diseases 4(7):e740 (2010)). Quantification of bioluminescence and data analysis was performed using Aura Imaging Software version 4.0.7 (Spectral Instruments Imaging, Tucson, AZ).
Whole blood was incubated with a major histocompatibility complex I (MHC I) tetramer containing the T. cruzi transialidase TSKB20 peptide (ANYKFTLV (SEQ ID NO:124)/Kb) labeled with BV421 (Tetramer Core Facility at Emory University, Atlanta, GA) and the following labeled antibodies: anti-CD8 FITC, anti-CD4 APC EF780, anti-CD127 PE (BD Bioscience, San Jose, CA). At least 500,000 cells were acquired using a CyAn ADP flow cytometer (Beckman Coulter, Hialeah, Florida) and analyzed with FlowJo software v10.6.1 (Treestar, Inc., Ashland, OR).
[…]

[10] = system: T. cruzi; experiment: BNZ prophylaxis / treatment in kennel dogs (multiplex serology, blood PCR); format: in vivo, Trypanosoma cruzi; settings: for impact of prophylaxis on new infections: high intensity transmission setting
From the text: For studies in dogs, a small network of kennels was formed in central and south Texas with a history of triatomine vector occurrence and canine Chagas disease with owners who were willing to participate in the study. Kennels are identified through (i) canine patients with Chagas disease presenting to the cardiology unit at the TAMU VMTH and (ii) the TAMU Kissing Bug Community Science program, in which many dog owners submit triatomines collected from large kennel environments. At these large kennels, dogs are primarily bred and trained to aid hunting parties. Approximately 40-80 dogs reside within each kennel, and the predominant breeds include Belgian Malinois, Brittany spaniels, English pointers, German shorthaired pointers, Labrador retrievers, and hound dogs. Dogs >3 months of age, including males and females, were eligible for enrollment. Dogs identified after blood screening as seronegative based on multiplex serology and PCR-negative were randomly assigned to treatment groups. Neither the investigators, private veterinarian providing care to the dogs in the field, nor the dog owners were blinded to the treatment groups and no placebo was given to control dogs. Informed consent was obtained from dog owners prior to their participation, and this study was approved by the Texas A&M University Institutional Committee on Animal Use and Care and the Clinical Research Review Committee.
The limit of detection was set at the lowest standard of 0.0017 parasite equivalents per 50 ng of DNA. For detection of T. cruzi infection in dogs, DNA was extracted from 250 uL of the buffy coat fraction of EDTA-treated blood using the E.Z.N.A Tissue DNA kit (Omega Bio-Tek, Norcross, GA, USA) according to the manufacturer's protocol except 50 μL of elution buffer was used. T. cruzi-negative controls (phosphate buffered saline) were included in the DNA extractions. Samples were tested using qPCR for the presence of T. cruzi satellite DNA using the Cruzi 1/2 primer set and Cruzi 3 probe in a real-time assay, which amplifies a 166-bp segment of a repetitive nuclear DNA (Piron, et al., Acta tropica. 103(3):195-200 (2007), Cummings & Tarleton, Molecular and biochemical parasitology 129(1):53-9 (2003)) as previously described (Meyers, et al., PLoS neglected tropical diseases 11(8) 2017)). A sample was considered T. cruzi-positive if the Ct value was <35 (Curtis-Robles, et al., Vet Parasitol Reg Stud Reports 12:85-8 (2018)).
The 67 animals considered infection-negative were randomly assigned to either a control (no therapy) or a prophylactic group, which received twice weekly doses of BNZ at a level of not less than 10 mg/kg. This dosage is approximately the normal daily dose previously used (mostly ineffectively) to attempt drug-cure in dogs (Guedes, et al., Acta tropica. 84(1):9-17 (2002), Santos, et al., The Journal of antimicrobial chemotherapy. 67(8):1987-95 (2012), Cunha, et al., Experimental parasitology. 204:107711 (2019)). Dogs in these groups were then re-sampled 10-12 weeks (considered the midpoint of the transmission season) and ˜24 weeks (end of season).

[11] = system: T. cruzi; settings: T. cruzi-infected NHPs; cited from earlier work
[12] = system: T. cruzi extracellular amastigotes; experiment: Extracellular amastigote assay (ATPlite ATP production, 48 hours); format: cell-based, Trypanosoma cruzi; settings: relative to parent ester (FIG. 2A)
Procedure: as §1

[13] = dog BEHE4, 30 mg/kg twice a week, 24 week sample point

## O=C(Nc1ccc2c(c1)B(O)OC2)c1ccc(F)cc1C(F)(F)F [AN4169]
[1]
  therapeutic margin in rodent tolerability studies: insufficient therapeutic margin
[2]; mice infected with T. cruzi Brazil strain
  cure of mice: 100%

## Cc1c(C(=O)N[C@H](C(=O)OCc2ccc(S(C)(=O)=O)cc2)C(C)C)ccc2c1B(O)OC2 [AN14561]
[3]
  in vitro activity against T. cruzi: significantly less potent

## Cc1c(C(=O)N[C@H](C(=O)OCc2ccc(F)cc2)C(C)(C)O)ccc2c1B(O)OC2 [AN14817]
[4]
  affinity for a broad array of mammalian enzymes, receptors and ion channels: little to no affinity
[5]
  genotoxicity, Ames: non-genotoxic
[6]
  inhibition of representative cytochrome P450 enzymes: did not demonstrate significant inhibition
[7]
  dose proportionality of exposure: non-dose proportional exposure

## Cc1c(C(=O)N[C@H](C(=O)OCc2ccc(F)cc2)C(C)C)ccc2c1B(O)OC2 [AN11736]
[8]
  effect of CPSF3 overexpression on killing: induced resistance to killing

## O=C(Cn1ccnc1[N+](=O)[O-])NCc1ccccc1 [benznidazole]
[9]; IFNγ KO mice, within 4 weeks of termination of prophylaxis
  mice systemically parasite-positive: 4 of 5
[9]; WT mice
  overall effect of prophylaxis regimen: prevented or truncated an infection in most cases
[9]; WT mice, day 14 post-exposure or beyond
  luciferase signal: none of the mice in the BNZ-treated WT group had a detectable luciferase signal above background
[9]; WT mice, week 33
  mice negative for T. cruzi DNA (qPCR of skeletal muscle, heart, gut): at least 3 of the 5
[9]; mice under prophylaxis vs no prophylaxis, through 21st week
  fraction of CD127+ cells in the TSKb20-specific CD8+ T cell population: substantially higher fraction of CD127+ cells
[9]; some IFNγ KO mice, day 14 post-exposure (not at 12 weeks)
  luciferase signal: low level signal
[10]; [13]
  blood PCR: PCR negative
  serology: seronegative
[10]; dogs
  impact of prophylaxis on new infections: no impact on the incidence of new infections
[10]; dogs, listed as BNZ
  impact of prophylaxis on new infections: no impact on the number of new infections
[10]; dogs, prophylaxis group, twice weekly not less than 10 mg/kg
  new infections: 26.5%
[2]; mice, weekly or twice weekly high dose (2.5-5× normal daily dose)
  cure of established infections: could cure established infections
[2]; mice
  generation of cure with 20 days of treatment: only partially effective
[11]
  failures in treatment trials: > 60%

## Cc1c(C(=O)N[C@H](C(=O)OCc2ccccc2)C(C)C)ccc2c1B(O)OC2 [AN11735]
[3]; read-out: in vitro activity against T. cruzi (IC50)
  pIC50: > 8.00

## CC(C)[C@H](NC(=O)c1ccc2c(c1)B(O)OC2)C(=O)OCc1ccccc1 [AN10443]
[3]
  in vitro activity against T. cruzi: submicromolar activity
other
  metabolic stability in mouse S9 liver fraction assay: good metabolic stability

## Cc1c(C(=O)NC(C(=O)OCCN2CCOCC2)C(C)C)ccc2c1B(O)OC2 (centres unmarked) [AN15129]
[3]
  in vitro activity against T. cruzi: less active than neutral compounds

## CC[C@@H]([C@H](C)O)n1ncn(-c2ccc(N3CCN(c4ccc(OC[C@@H]5CO[C@@](Cn6cncn6)(c6ccc(F)cc6F)C5)cc4)CC3)cc2)c1=O [posaconazole]
[11]
  failures in treatment trials: 100%

## Cc1c(C(=O)N[C@H](C(=O)O)C(C)C)ccc2c1B(O)OC2 [AN14667]
[3]; relative to parent ester (FIG. 2A)
  reduced activity on intracellular amastigotes: ~1000 fold
[12]
  reduced activity on extracellular amastigotes: ~1000 fold
